{"source": "paper PMC7156724", "about": "“Potent BRD4 inhibitor suppresses cancer cell-macrophage interaction” (Nature Communications, 2020)", "key": {"[1]": {"assay": "Equilibrium dialysis assay, SD rat plasma", "protocol": "The concentration was calculated using the peak area ratio of analyte and internal […]\nThe results were calculated by the following equations:\n% Unbound = 100 *FC / TC, % Bound = 100 * (1-FC / TC)\n% Recovery = 100 * (FC + TC) / T0\nTC = Total compound concentration as determined by the calculated concentration on the retentate side of the membrane\nFC = Free compound concentration as determined by the calculated concentration on the dialysate side of the membrane […]\nEquation of first order kinetics: […]\n8. Equilibrium dialysis assay. Binding with plasma protein and recovery rate of NHWD-870 were performed with human, CD-1 mouse and SD rat plasma as […]\ndescribed 2. […] The concentration was […]\ncalculated using the peak area ratio of analyte and internal standard. The results were calculated by the following equations: % Unbound = 100 *FC / TC, % Bound = 100 * (1-FC / TC); % Recovery = 100 * (FC + TC) / T0; TC = Total compound concentration as determined by the calculated concentration on the retentate side of the membrane; FC = Free compound concentration as determined by the (1 picture or pasted object on this page, not shown here) […]\ncalculated concentration on the dialysate side of the membrane; T0 = To t a l compound concentration as determined before dialysis. […]\n10. hERG channel assay. […]\nHEK293 cell line stably"}, "[2]": {"system": "BRD4 binding to the HIF1A promoter", "assay": "BRD4 ChIP-qPCR of the HIF1A promoter in A2780 cells", "format": "cell-based, human", "protocol": "Fig. 7 NHWD-870 inhibited CSF1 expression through suppressing BRD4 and HIF1α in tumor cells. a, b Representative western blot analysis of control (Ctrl) and BRD4 knockout (KO) A375 and A2780 cells exposed to 20% or 1% O2 for 24 hours. Selected from three independent experiments. c, d Representative western blot analysis of A375 and A2780 cells treated with DMSO or 25 nM NHWD-870 and exposed to 20% or 1% O2 for 24 h. Selected from three independent experiments. e Relative HIF1 luciferase reporter activity in control (Ctrl), BRD4 knockout (KO), or NHWD-870 treated A375 and A2780 cells exposed to 20% or 1% O2 for 24 h. Data are presented as mean ± SEM from three independent experiments. f RT-qPCR analyses of CSF1 in control (Ctrl), BRD4 knockout (KO), or NHWD-870 treated A375 and A2780 cells exposed to 20% or 1% O2 for 24 hours. Data are presented as mean ± SEM from three independent experiments. g RT-qPCR analyses of HIF1A in A375 or A2780 cells treated with 15 nM NHWD-870 or DMSO control for 24 h. Data are presented as mean ± SEM from three independent experiments. h Genome browser view of BRD4 ChIP-seq peaks on the HIF1A promoter. Shown are BRD4 ChIP and input control of A375 cells (top panel) and BRD4 ChIP of MDA-MB231 cells treated with DMSO or JQ-1 (bottom panel). i BRD4 ChIP-qPCR analyses of the HIF1A promoter in A2780 cells treated with DMSO or NHWD-870 for 72 h. Data are presented as mean ± SEM from three independent experiments. j RT-qPCR analyses of CSF1 in A375 and A2780 cells were transiently transduced with HIF1α, then exposed to 1% O2 for 24 h. Ctrl, Control. Data are presented as mean ± SEM from three independent experiments. k A model showing the effects of NHWD-870 on cancer cell-TAM interaction. NHWD-870 inhibits the proliferation and survival of TAMs partly by inhibiting BRD4 activity, HIF1α expression, and CSF1 secretion by tumor cells, and downregulating CSF1R mediated ERK and PI3K/AKT signaling in TAMs. p values were calculated using two-tailed, unpaired t tests in this figure. *p < 0.05; **p < 0.01; ***p < 0.001. […]"}}, "note": "“And” between values parts separate entries of the source, which are not always exact repeats. Equal entries are not always repeated.", "data": [{"smiles": "Cc1nnn(C)c1-c1cnc2c3c4cnn(C)c4ccc3n([C@H](c3ccccc3)C3CCOCC3)c2c1", "note": "[NHWD-870]", "values": [{"measurement": "% Bound", "setting": "[1]; SD rat plasma, equilibrium dialysis", "result": 95.4, "unit": "%"}, {"measurement": "fraction unbound", "setting": "[1]; SD, rat, plasma", "result": 0.046}, {"measurement": "recovery", "setting": "[1]; SD, rat, plasma", "result": 92.5, "unit": "%"}, {"measurement": "ChIP-qPCR enrichment relative to input, IgG (Fig.7i)", "setting": "[2]; A2780, 15nM 3 days", "result": "0.411 and 0.4665 and 0.4566"}, {"measurement": "ChIP-qPCR enrichment relative to input, anti-BRD4 (Fig.7i)", "setting": "[2]; A2780, 15nM 3 days", "result": "0.646 and 0.721 and 0.6555"}, {"measurement": "BRD4 binding to the HIF1A promoter (ChIP-qPCR)", "setting": "[2]; A2780 cells, 15nM, 72 h", "result": "decreased BRD4 binding to the HIF1A promoter"}]}]}
